Source: patent publication US20230058412A1, “Carbohydrate-Modified Particles and Particulate Formulations for Modulating an Immune Response” (NORTHWESTERN UNIVERSITY, priority 2015, published 2023)

Columns and labels:
RAW 264.7 macrophage = conditions: cited from earlier work
RAW264.7 cells = experiment: High-throughput screen of cytokine production by LPS-stimulated RAW264.7 macrophages; type: cell-based
Source text: Since macrophages are one immune cell thought to be important in immune responses, including tolerance through their production of a key immune mediator called Interleukin-10 (IL-10), we developed an in vitro approach to screening the effects of EDC-cells versus PLGA nanoparticles for their effects on IL-10 production.
We examined the proinflammatory response (IL-6) or anti-inflammatory response (IL-10), as outlined in FIG. 2.
Using the strategy in FIG. 2, we calculated the greatest fold change for cytokine production over a therapeutically relevant dose curve of 0.1, 1, 10, and 100 μM.
Using activated RAW macrophages we developed a high throughput screening method to identify tolerogenic signals.
In support of our overarching concept that ECDI-fixed NPs are lacking signals for induction of tolerogenic signals, we have examined the ability to modulate cytokine responses in a macrophage cell line (RAW264.7).

Mer = target: T1, Mer (Homo sapiens, UniProt Q12866); conditions: exogenous ligand; cited from earlier work
T1 sequence (Q12866 21-999): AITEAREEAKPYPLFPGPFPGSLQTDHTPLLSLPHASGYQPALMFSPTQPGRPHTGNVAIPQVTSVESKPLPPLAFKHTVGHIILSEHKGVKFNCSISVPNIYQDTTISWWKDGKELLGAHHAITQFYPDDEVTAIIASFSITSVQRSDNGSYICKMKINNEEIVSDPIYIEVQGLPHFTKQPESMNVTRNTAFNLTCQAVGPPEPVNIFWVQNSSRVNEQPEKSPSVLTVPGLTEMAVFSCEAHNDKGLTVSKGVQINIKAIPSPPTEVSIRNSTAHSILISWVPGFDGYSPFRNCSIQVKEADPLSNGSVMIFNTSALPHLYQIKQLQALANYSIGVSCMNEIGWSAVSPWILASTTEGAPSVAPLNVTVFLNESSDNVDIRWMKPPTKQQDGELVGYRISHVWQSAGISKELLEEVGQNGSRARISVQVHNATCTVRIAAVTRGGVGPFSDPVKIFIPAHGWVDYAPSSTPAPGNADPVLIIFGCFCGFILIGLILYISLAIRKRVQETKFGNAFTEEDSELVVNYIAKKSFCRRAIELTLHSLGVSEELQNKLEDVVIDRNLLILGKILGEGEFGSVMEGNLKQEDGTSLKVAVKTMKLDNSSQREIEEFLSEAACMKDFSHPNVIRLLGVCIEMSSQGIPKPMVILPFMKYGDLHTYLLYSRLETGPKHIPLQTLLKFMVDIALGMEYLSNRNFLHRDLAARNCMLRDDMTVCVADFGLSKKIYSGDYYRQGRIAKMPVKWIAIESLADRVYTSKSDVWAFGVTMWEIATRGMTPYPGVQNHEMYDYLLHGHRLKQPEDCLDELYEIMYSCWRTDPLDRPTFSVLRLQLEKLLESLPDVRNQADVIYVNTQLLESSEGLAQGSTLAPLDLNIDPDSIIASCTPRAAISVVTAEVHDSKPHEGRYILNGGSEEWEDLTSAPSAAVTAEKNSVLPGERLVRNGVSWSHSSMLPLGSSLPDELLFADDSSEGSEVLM

CD209 = target: T2, CD209 (Homo sapiens, UniProt Q9NNX6); conditions: cited from earlier work
T2 sequence (Q9NNX6 1-404): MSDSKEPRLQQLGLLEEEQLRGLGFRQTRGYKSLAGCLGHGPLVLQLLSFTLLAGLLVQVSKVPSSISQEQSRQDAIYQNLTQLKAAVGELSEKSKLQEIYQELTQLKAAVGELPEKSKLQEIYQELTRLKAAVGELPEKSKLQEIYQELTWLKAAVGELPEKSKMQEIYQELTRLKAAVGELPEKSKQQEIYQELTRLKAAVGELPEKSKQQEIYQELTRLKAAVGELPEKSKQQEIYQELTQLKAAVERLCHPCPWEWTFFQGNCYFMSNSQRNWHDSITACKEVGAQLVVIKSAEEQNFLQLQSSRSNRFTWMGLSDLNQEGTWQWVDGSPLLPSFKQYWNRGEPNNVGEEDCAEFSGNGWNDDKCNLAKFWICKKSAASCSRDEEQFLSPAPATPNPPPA

allograft = conditions: in vivo; cited from earlier work
[1] = macrophages stimulated with LPS

## C[C@H]1CC[C@@H]2N(C1)C[C@H]1[C@@H]3C[C@H]4[C@@H](C[C@H](O)[C@H]5C[C@@H](O)CC[C@@]54C)[C@@H]3CC[C@@H]1[C@]2(C)O [peimine]
RAW 264.7 macrophage
  inflammatory response (decrease of pro-inflammatory cytokines, increase in IL-10/TGF13): inhibit this inflammatory response

## Nc1ncnc2c1ncn2[C@@H]1O[C@H](CO)[C@@H](O)[C@H]1O [adenosine]
RAW 264.7 macrophage
  inflammatory response (decrease of pro-inflammatory cytokines, increase in IL-10/TGF13): inhibit this inflammatory response

## CC(=O)N[C@H]1C(O)O[C@H](CO)[C@@H](O[C@@H]2O[C@H](CO)[C@H](O)[C@H](O)[C@H]2O)[C@@H]1O[C@@H]1O[C@@H](C)[C@@H](O)[C@@H](O)[C@@H]1O (some centres unmarked) [Lewis^x antigen]
RAW264.7 cells; [1]
  IL-6 production: suppression of IL-6 production
  IL-10 production: enhancement of IL-10

## Protein S: cognate ligand for TAM RTKs
Mer
  tyrosine autophosphorylation / signalling of Mer: only capable of signaling through Mer

## C[C@H](O)[C@@H](O)[C@@H](O)[C@H](O)C=O [Fucose, L-Fucose]
RAW264.7 cells; macrophages activated with LPS, with or without ECDI-SP, dose curve 0.1, 1, 10, 100 μM
  tolerogenic signal (increase IL-10 secretion and/or decrease IL-6 secretion versus baseline): exhibiting a tolerogenic signal

## CCCCCC(=O)CC(=O)/C=C/c1ccc(O)c(OC)c1 [6-dehydrogingerdione]
RAW 264.7 macrophage
  inflammatory response (decrease of pro-inflammatory cytokines, increase in IL-10/TGF13): inhibit this inflammatory response

## CC(=O)N[C@H]1[C@H](O[C@H]2[C@@H](O)[C@@H](CO)O[C@@H](O[C@H]3[C@H](O)[C@@H](O)C(O)O[C@@H]3CO)[C@@H]2O)O[C@H](CO)[C@@H](O[C@@H]2O[C@H](CO)[C@H](O)[C@H](O)[C@H]2O)[C@@H]1O[C@@H]1O[C@@H](C)[C@@H](O)[C@@H](O)[C@@H]1O (some centres unmarked) [LNFPIII, Lacto-N-fuconentaose III]
CD209
  binding and signalling through CD209: binds and signals through CD209
allograft
  allograft survival: prolong allograft survival

## C[C@H]1O[C@@H](O[C@H]2CC[C@@]3(C)[C@@H](CC[C@]4(C)[C@@H]3C=C[C@]35OC[C@@]6(CCC(C)(C)C[C@H]63)[C@@H](O)C[C@]54C)[C@]2(C)CO)[C@H](O)[C@@H](O[C@@H]2O[C@H](CO)[C@@H](O)[C@H](O)[C@H]2O)[C@H]1O [saikosaponin A]
RAW 264.7 macrophage
  inflammatory response (decrease of pro-inflammatory cytokines, increase in IL-10/TGF13): inhibit this inflammatory response

## GAS6: Growth Arrest-Specific 6, cognate ligand for TAM RTKs
Mer
  tyrosine autophosphorylation / signalling of Mer: stimulate tyrosine autophosphorylation of both Mer and Ax1
